Source: US20170224662A1 (priority 2016, published 2017)
Marks after values point to notes of the source that are not given here.

Assay: Binary excipient screening: stability of CPMM 1 mg/mL in IV-compatible excipient solutions in 10 mM pH 3 phosphate buffer
Assay type: physicochemical
Conditions: for CPMM % Purity: t = 0
Experimental: CPMM was evaluated for compatibility with excipients that are suitable for IV administration. A buffer solution (phosphate at pH 3) was selected as the diluent for excipient screening studies. […] CPMM was solubilized in each excipient solution at 1 mg/mL.
While CPMM completely dissolved in the control sample within several minutes, many of the excipient solutions required overnight storage at 5° C. to solubilize the drug.
Each excipient sample solution was placed on a two-week stability study at 25° C./60% relative humidity and 40° C./75% relative humidity, and analyzed for CPMM purity at t=0, 1, and 2 weeks by comparing individual samples to their respective excipient blank solution.

In the case of `COC(=O)C1(OC(=O)c2cncn2[C@H](C)c2ccccc2)CC1` [CPMM, 1-(methoxycarbonyl)cyclopropyl-1-[(1R)-1-phenylethyl]-1H-imidazole-5-carboxylate], the “Change in CPMM % Purity” value (Lutrol F68 1% in pH 3 buffer, 1 week 40° C./75% RH) is reported as −5.2%, the “Change in CPMM % Purity” value (Lutrol F68 1% in pH 3 buffer, 2 weeks 25° C./60% RH) is reported as −2.5% and the “Change in CPMM % Purity” value (Lutrol F68 1% in pH 3 buffer, 2 weeks 40° C./75% RH) is reported as −9.0%. The “CPMM % Purity” value (Lutrol F68 1% in pH 3 buffer) was 99.5%, the “Change in CPMM % Purity” value (Mannitol 5% in pH 3 buffer, 1 week 25° C./60% RH) was −1.5% and the “Change in CPMM % Purity” value (Mannitol 5% in pH 3 buffer, 1 week 40° C./75% RH) was −5.2%. The “Change in CPMM % Purity” value (Mannitol 5% in pH 3 buffer, 2 weeks 25° C./60% RH) was −2.6%, the “Change in CPMM % Purity” value (Mannitol 5% in pH 3 buffer, 2 weeks 40° C./75% RH) was −9.1% and the “CPMM % Purity” value (Mannitol 5% in pH 3 buffer) was 99.4%. The “Change in CPMM % Purity” value (NaCl 5% in pH 3 buffer, 1 week 25° C./60% RH) was −1.1%, the “Change in CPMM % Purity” value (NaCl 5% in pH 3 buffer, 1 week 40° C./75% RH) was −4.0% and the “Change in CPMM % Purity” value (NaCl 5% in pH 3 buffer, 2 weeks 25° C./60% RH) was −1.9%. For the same compound, the “Change in CPMM % Purity” value (NaCl 5% in pH 3 buffer, 2 weeks 40° C./75% RH) was −7.2%, the “CPMM % Purity” value (NaCl 5% in pH 3 buffer) was 99.4% and the “Change in CPMM % Purity” value (PEG 400 10% in pH 3 buffer, 1 week 25° C./60% RH) was −1.2%. For the same compound, the “Change in CPMM % Purity” value (PEG 400 10% in pH 3 buffer, 1 week 40° C./75% RH) was −4.0%, the “Change in CPMM % Purity” value (PEG 400 10% in pH 3 buffer, 2 weeks 25° C./60% RH) was −2.0% and the “Change in CPMM % Purity” value (PEG 400 10% in pH 3 buffer, 2 weeks 40° C./75% RH) was −7.0%. For the same compound, the “CPMM % Purity” value (PEG 400 10% in pH 3 buffer) was 99.5%, the “CPMM % Purity” value (PVP K17 5% in pH 3 buffer, excipient peak co-elutes with several related substances, not accounted for) was 99.6%* and the “Change in CPMM % Purity” value (Polysorbate 20 1% in pH 3 buffer, 1 week 25° C./60% RH) was −1.4%. For the same compound, the “Change in CPMM % Purity” value (Polysorbate 20 1% in pH 3 buffer, 1 week 40° C./75% RH) was −4.6%, the “Change in CPMM % Purity” value (Polysorbate 20 1% in pH 3 buffer, 2 weeks 25° C./60% RH) was −2.1% and the “Change in CPMM % Purity” value (Polysorbate 20 1% in pH 3 buffer, 2 weeks 40° C./75% RH) was −8.1%. The “CPMM % Purity” value (Polysorbate 20 1% in pH 3 buffer) was 99.4%, the “Change in CPMM % Purity” value (Polysorbate 80 1% in pH 3 buffer, 1 week 25° C./60% RH, may be due to excipient impurities) was −4.2%^† and the “Change in CPMM % Purity” value (Polysorbate 80 1% in pH 3 buffer, 1 week 40° C./75% RH, may be due to excipient impurities) was −8.3%^†. The “Change in CPMM % Purity” value (Polysorbate 80 1% in pH 3 buffer, 2 weeks 25° C./60% RH, may be due to excipient impurities) was −5.2%^†, the “Change in CPMM % Purity” value (Polysorbate 80 1% in pH 3 buffer, 2 weeks 40° C./75% RH, may be due to excipient impurities) was −15.0%^† and the “CPMM % Purity” value (Polysorbate 80 1% in pH 3 buffer) was 99.4%. For the same compound, the “Change in CPMM % Purity” value (Propylene Glycol 10% in pH 3 buffer, 1 week 25° C./60% RH) was −1.2%, the “Change in CPMM % Purity” value (Propylene Glycol 10% in pH 3 buffer, 1 week 40° C./75% RH) was −4.0% and the “Change in CPMM % Purity” value (Propylene Glycol 10% in pH 3 buffer, 2 weeks 25° C./60% RH) was −1.9%. The “Change in CPMM % Purity” value (Propylene Glycol 10% in pH 3 buffer, 2 weeks 40° C./75% RH) was −6.9%, the “CPMM % Purity” value (Propylene Glycol 10% in pH 3 buffer) was 99.4% and the “Change in CPMM % Purity” value (SBECD 10% in pH 3 buffer, 1 week 25° C./60% RH) was −0.4%. The “Change in CPMM % Purity” value (SBECD 10% in pH 3 buffer, 1 week 40° C./75% RH) was −1.3%, the “Change in CPMM % Purity” value (SBECD 10% in pH 3 buffer, 2 weeks 25° C./60% RH) was −0.4% and the “Change in CPMM % Purity” value (SBECD 10% in pH 3 buffer, 2 weeks 40° C./75% RH) was −2.1%. The “CPMM % Purity” value (SBECD 10% in pH 3 buffer) was 99.4%, the “Change in CPMM % Purity” value (Sodium Bisulfite 0.5% in pH 3 buffer, 1 week 25° C./60% RH) was −1.9% and the “Change in CPMM % Purity” value (Sodium Bisulfite 0.5% in pH 3 buffer, 1 week 40° C./75% RH) was −7.2%. The “Change in CPMM % Purity” value (Sodium Bisulfite 0.5% in pH 3 buffer, 2 weeks 25° C./60% RH) was −3.2%, the “Change in CPMM % Purity” value (Sodium Bisulfite 0.5% in pH 3 buffer, 2 weeks 40° C./75% RH) was −12.2% and the “CPMM % Purity” value (Sodium Bisulfite 0.5% in pH 3 buffer) was 99.4%. For the same compound, the “Change in CPMM % Purity” value (Solutol HS15 1% in pH 3 buffer, 1 week 25° C./60% RH) was −1.3%, the “Change in CPMM % Purity” value (Solutol HS15 1% in pH 3 buffer, 1 week 40° C./75% RH) was −4.2% and the “Change in CPMM % Purity” value (Solutol HS15 1% in pH 3 buffer, 2 weeks 25° C./60% RH) was −2.1%. For the same compound, the “Change in CPMM % Purity” value (Solutol HS15 1% in pH 3 buffer, 2 weeks 40° C./75% RH) was −7.3%, the “CPMM % Purity” value (Solutol HS15 1% in pH 3 buffer) was 99.4% and the “Change in CPMM % Purity” value (Sorbitol 5% in pH 3 buffer, 1 week 25° C./60% RH) was −1.3%. For the same compound, the “Change in CPMM % Purity” value (Sorbitol 5% in pH 3 buffer, 1 week 40° C./75% RH) was −4.5%, the “Change in CPMM % Purity” value (Sorbitol 5% in pH 3 buffer, 2 weeks 25° C./60% RH) was −2.3% and the “Change in CPMM % Purity” value (Sorbitol 5% in pH 3 buffer, 2 weeks 40° C./75% RH) was −8.3%. The “CPMM % Purity” value (Sorbitol 5% in pH 3 buffer) was 99.5%, the “Change in CPMM % Purity” value (Sucrose 5% in pH 3 buffer, 1 week 25° C./60% RH) was −1.5% and the “Change in CPMM % Purity” value (Sucrose 5% in pH 3 buffer, 1 week 40° C./75% RH) was −5.2%. The “Change in CPMM % Purity” value (Sucrose 5% in pH 3 buffer, 2 weeks 25° C./60% RH) was −2.5%, the “Change in CPMM % Purity” value (Sucrose 5% in pH 3 buffer, 2 weeks 40° C./75% RH) was −9.0% and the “CPMM % Purity” value (Sucrose 5% in pH 3 buffer) was 99.4%. For the same compound, the “Change in CPMM % Purity” value (Trehalose 5% in pH 3 buffer, 1 week 25° C./60% RH) was −1.3%, the “Change in CPMM % Purity” value (Trehalose 5% in pH 3 buffer, 1 week 40° C./75% RH) was −4.6% and the “Change in CPMM % Purity” value (Trehalose 5% in pH 3 buffer, 2 weeks 25° C./60% RH) was −2.3%. The “Change in CPMM % Purity” value (Trehalose 5% in pH 3 buffer, 2 weeks 40° C./75% RH) was −8.4% and the “CPMM % Purity” value (Trehalose 5% in pH 3 buffer) was 99.4%.
